The source made the active and inactive calls. The calls are words filed in the database; no cut-off is given here.
Assays:
Hepatitis B virus = experiment: Antiviral activity against genotype D HBV infected in sodium taurocholate co-transporting polypeptide receptor-expressing stable HepG2 cell line assessed as suppression of HBsAg level incubated for 5 days by multiplex chemiluminescent MSD assay; type: functional, organism-based; details: HepG2, 120 h
[1] = Clearance in Sprague-Dawley rat at […], iv measured after 24 hrs by LC/MS/MS method; type: ADME, organism-based; details: in vivo
[2] = Oral bioavailability in Sprague-Dawley rat after 24 hrs by LC/MS/MS method; type: ADME, organism-based; details: in vivo
[3] = Lipophilicity, logD of the compound; type: physicochemical; details: octanol/water
[4] = Oral bioavailability in rat at 5 mg/kg; type: ADME, organism-based; details: in vivo
[5] = In vivo clearance in cynomolgus monkey; type: ADME, organism-based, Macaca fascicularis
[6] = Oral bioavailability in cynomolgus monkey at 5 mg/kg; type: ADME, organism-based, Macaca fascicularis; details: in vivo
[7] = In vivo clearance in rat; type: ADME, organism-based
[8] = Hepatic extraction in cynomolgus monkey; type: ADME, Macaca fascicularis; details: read-out: ERH
[9] = Hepatic extraction in dog; type: ADME, Canis lupus familiaris; details: read-out: ERH
[10] = In vivo clearance in dog; type: ADME, organism-based, Canis lupus familiaris
[11] = Hepatic extraction in rat; type: ADME; details: read-out: ERH
[12] = Oral bioavailability in dog at 5 mg/kg; type: ADME, organism-based, Canis lupus familiaris; details: in vivo
Primary hepatocyte [13] = experiment: Effect on cccDNA level in HBV infected primary human hepatocyte at 0.5 uM media replaced for every 2 to 3 days incubated for 12 days by Southern blot analysis; type: functional, cell-based; details: Hepatitis B virus, time 12.0 day
Primary hepatocyte [14] = experiment: Effect on cccDNA level in HBV infected primary human hepatocyte at 0.25 uM media replaced for every 2 to 3 days incubated for 12 days by Southern blot analysis; type: functional, cell-based; details: Hepatitis B virus, time 12.0 day

COCCCOc1cc2c(cc1C1COC1)-c1cc(=O)c(C(=O)O)cn1N1[C@@H]2CCC1(C)C gave an EC50 (Hepatitis B virus) of 13 nM.
Compound CC(C)(C)N1Cc2cc(C#Cc3ccc(N4CC5CCC(C4)O5)nc3)c(Cl)cc2-c2cc(=O)c(C(=O)O)cn21 has an EC50 (Hepatitis B virus) of 1.5 nM.
For COCCCOc1cc2c(cc1Cl)-c1cc(=O)c(C(=O)O)cn1N1[C@@H]2CC[C@@H]1C, the EC50 (Hepatitis B virus) was 5.4 nM.
With COCCCOc1cc2c(cc1C1CC1)-c1cc(=O)c(C(=O)O)cn1N1[C@@H]2CCC1(C)C the EC50 (Hepatitis B virus) was 0.78 nM and the clearance [1] was 16.7 mL/min/kg.
Compound COCCCOc1cc2c(cc1Cl)-c1cc(=O)c(C(=O)O)cn1N1CCC[C@H]21 has an EC50 (Hepatitis B virus) of 55 nM.
With CCOc1cc2c(cc1OCCCOC)[C@H]1CCC(C)(C)N1n1cc(C(=O)O)c(=O)cc1-2 the EC50 (Hepatitis B virus) was 7.5 nM, the bioavailability [2] was greater than 100% and the clearance [1] was 20 mL/min/kg.
For COCCCOc1cc2c(cc1OC(F)(F)F)-c1cc(=O)c(C(=O)O)cn1N1[C@@H]2CCC1(C)C, the EC50 (Hepatitis B virus) was 1.1 nM, the bioavailability [2] was 47% and the clearance [1] was 8 mL/min/kg.
For CC(C)(C)N1Cc2cc(OCC3COC3)c(Cl)cc2-c2cc(=O)c(C(=O)O)cn21, the EC50 (Hepatitis B virus) was 7.6 nM, the bioavailability [2] was 91% and the clearance [1] was 20 mL/min/kg.
Compound COCCOCc1cc2c(cc1Cl)-c1cc(=O)c(C(=O)O)cn1N(C(C)(C)C)C2 has an EC50 (Hepatitis B virus) of 210 nM.
In the case of COCCCOc1cc2c(cc1OC)-c1cc(=O)c(C(=O)O)cn1C(C1(C)CC1)C2 (stereo not given), the logD [3] is reported as 2.2.
CC(C)(C)N1Cc2cc(OCCCOc3cnn(C(F)F)c3)c(Cl)cc2-c2cc(=O)c(C(=O)O)cn21 gave an EC50 (Hepatitis B virus) of 3.9 nM and a clearance [1] of 25 mL/min/kg.
In the case of COCCCOc1cc2c(cc1Cl)-c1cc(=O)c(C(=O)O)cn1N(C(C)(C)C)[C@H]2C, the EC50 (Hepatitis B virus) is reported as 97 nM.
COCCCOc1cc2c(cc1Cl)-c1cc(=O)c(C(=O)O)cn1[C@H](C(C)(C)C)C2 gave a logD [3] of 2.5, a bioavailability [4] of 41% and a clearance [5] of 2.83 mL/min/kg. It also gave an EC50 (Hepatitis B virus) of 150 nM, a bioavailability [6] of 120% and a clearance [7] of 5 mL/min/kg. The hepatic extraction ratio [8] was 0.11, the hepatic extraction ratio [9] was 0.2 and the clearance [10] was 6 mL/min/kg. For the same compound, the hepatic extraction ratio [11] was 0.071.
COCCCNc1cc2c(cc1Cl)-c1cc(=O)c(C(=O)O)cn1N(C(C)(C)C)C2 gave an EC50 (Hepatitis B virus) of 18 nM.
In the case of CC(C)(C)N1Cc2cc(OCC3CC(F)(F)C3)c(Cl)cc2-c2cc(=O)c(C(=O)O)cn21, the EC50 (Hepatitis B virus) is reported as 12 nM, the bioavailability [2] is reported as 56% and the clearance [1] is reported as 4.17 mL/min/kg.
Work on CC(C)(C)N1Cc2cc(C#CC3CC3)c(Cl)cc2-c2cc(=O)c(C(=O)O)cn21 yielded an EC50 (Hepatitis B virus) of 16 nM.
In the case of CN(C)CCCOc1cc2c(cc1Cl)-c1cc(=O)c(C(=O)O)cn1N(C(C)(C)C)C2, the EC50 (Hepatitis B virus) is reported as 620 nM.
For COCCCOc1cc2c(cc1OC)-c1cc(=O)c(C(=O)O)cn1[C@H](C(C)C)C2, the logD [3] was 2.1, the bioavailability [4] was 56% and the bioavailability [12] was 90%. The clearance [5] was 11.3 mL/min/kg, the EC50 (Hepatitis B virus) was 15 nM and the bioavailability [6] was 84%. The clearance [7] was 18.3 mL/min/kg, the hepatic extraction ratio [8] was 0.43 and the hepatic extraction ratio [9] was 0.37. The clearance [10] was 11.2 mL/min/kg and the hepatic extraction ratio [11] was 0.26.
For COCCCOc1cc2c(cc1Cl)-c1cc(=O)c(C(=O)O)cn1N1CCC(C)(C)[C@H]21, the EC50 (Hepatitis B virus) was 12 nM.
COCCCOc1cc2c(cc1OCCCOC)[C@H]1CCC(C)(C)N1n1cc(C(=O)O)c(=O)cc1-2 gave an EC50 (Hepatitis B virus) of 11 nM.
CC(C)(C)N1Cc2cc(C#Cc3cnc(N4CC5CCC(C4)N5C4COC4)nc3)c(Cl)cc2-c2cc(=O)c(C(=O)O)cn21 showed an EC50 (Hepatitis B virus) of 2.1 nM, a bioavailability [2] of 30% and a clearance [1] of 15 mL/min/kg.
CCc1cc2c(cc1OCCCOC)[C@H]1CCC(C)(C)N1n1cc(C(=O)O)c(=O)cc1-2 showed an EC50 (Hepatitis B virus) of 0.45 nM.
Compound COCCCOc1cc2c(cc1OC(C)(C)C)-c1cc(=O)c(C(=O)O)cn1N1[C@@H]2CCC1(C)C has an EC50 (Hepatitis B virus) of 78 nM.
Work on CC(C)(C)N1Cc2cc(N3CCCC3)c(Cl)cc2-c2cc(=O)c(C(=O)O)cn21 yielded an EC50 (Hepatitis B virus) of 1 nM.
For COCCCOc1cc2c(cc1OC(C)C)-c1cc(=O)c(C(=O)O)cn1N1[C@@H]2CCC1(C)C, the EC50 (Hepatitis B virus) was 6.4 nM, the bioavailability [2] was 95% and the clearance [1] was 16.2 mL/min/kg.
Compound COCCCOc1cc2c(cc1Cl)-c1cc(=O)c(C(=O)O)cn1N1CC(C)(C)C[C@H]21 has an EC50 (Hepatitis B virus) of 41 nM.
For COCCCOc1cc2c(cc1Cl)-c1cc(=O)c(C(=O)O)cn1N1[C@@H]2CC1(C)C, the EC50 (Hepatitis B virus) was 4 nM.
For COCCCOc1cc2c(cc1OC)-c1cc(=O)c(C(=O)O)cn1N1[C@@H]2CCC1(C)C, the EC50 (Hepatitis B virus) was 2.1 nM, the bioavailability [2] was 84% and the clearance [1] was 16.7 mL/min/kg.
With COCCCOc1cc2c(cc1Cl)-c1cc(=O)c(C(=O)O)cn1N1[C@@H]2CCC12CC2 the EC50 (Hepatitis B virus) was 1 nM.
With COCCCOc1cc2c(cc1Cl)-c1cc(=O)c(C(=O)O)cn1N1[C@@H]2CCC12COC2 the EC50 (Hepatitis B virus) was 72 nM.
In the case of COCCCOc1cc2c(cc1OCC(F)F)-c1cc(=O)c(C(=O)O)cn1N1[C@@H]2CCC1(C)C, the EC50 (Hepatitis B virus) is reported as 5.8 nM, the bioavailability [2] is reported as 58% and the clearance [1] is reported as 13.8 mL/min/kg.
With COCCCOc1cc2c(cc1Cl)-c1cc(=O)c(C(=O)O)cn1N1[C@H](C)CC[C@H]21 the EC50 (Hepatitis B virus) was 11 nM.
With COCCCOc1cc2c(cc1Cl)-c1cc(=O)c(C(=O)O)cn1N1[C@@H]2COCC1(C)C the EC50 (Hepatitis B virus) was 2.9 nM.
With C[C@H](Cn1cnc2c(N)ncnc21)OCP(=O)(O)O the Activity (Primary hepatocyte [13]) was “inactive”.
With COCCCOc1cc2c(cc1Cl)-c1cc(=O)c(C(=O)O)cn1N1[C@@H]2CCCC1(C)C the EC50 (Hepatitis B virus) was 2 nM.
Compound COCCCOc1cc2c(cc1Cl)-c1cc(=O)c(C(=O)O)cn1N1[C@H]2CCC1(C)C has an EC50 (Hepatitis B virus) of 420 nM.
CC(C)(C)N1Cc2cc(-c3ccccn3)c(Cl)cc2-c2cc(=O)c(C(=O)O)cn21 showed an EC50 (Hepatitis B virus) of 47 nM.
For COCCCOc1cc2c(cc1Cl)-c1cc(=O)c(C(=O)O)cn1[C@H](C1(C)CC1)C2, the logD [3] was 2.4, the EC50 (Hepatitis B virus) was 3.8 nM and the Activity (Primary hepatocyte [14]) was “inactive”.
COCCCOc1cc2c(cc1Cl)-c1cc(=O)c(C(=O)O)cn1N(C(C)(C)C)[C@@H]2C showed an EC50 (Hepatitis B virus) of 390 nM.
COCCCOc1cc2c(cc1OC(F)F)-c1cc(=O)c(C(=O)O)cn1N1[C@@H]2CCC1(C)C gave an EC50 (Hepatitis B virus) of 0.97 nM, a bioavailability [2] of 60% and a clearance [1] of 9 mL/min/kg.
For COCCCOc1cc2c(cc1Cl)-c1cc(=O)c(C(=O)O)cn1N1[C@@H]2CCC1(C)C, the EC50 (Hepatitis B virus) was 1.7 nM, the bioavailability [2] was 66% and the clearance [1] was 4.5 mL/min/kg.
In the case of COCCCOc1cc2c(cc1S(C)(=O)=O)-c1cc(=O)c(C(=O)O)cn1N1[C@@H]2CCC1(C)C, the EC50 (Hepatitis B virus) is reported as 52 nM.
